Data published in patent US20250018047A1, “METHODS AND COMPOSITIONS FOR TARGETED PROTEIN DEGRADATION” (Ranok Therapeutics (Hangzhou) Co. Ltd., priority 2021, published 2025).
Where two headings read alike, the source gives them in different places.

What was measured:
[1] = system: AsPC-1 human pancreatic adenocarcinoma; assay: CellTiter-Glo cancer cell line proliferation assay, AsPC-1; format: cell-based
Protocol: (§1) Cell lines were cultured according to ATCC and recommendations.
(§2) CellTiter-Glo® Reagent Cancer Cell Line Proliferation Assays
(§3) Cells were plated in 96-well tissue culture plates at 4,000 cells/well and incubated at 37° C./5% CO2 for 24 hr in 100 μl of media. […] Cells were then treated with test compounds at various concentrations with a final concentration of 0.5% DMSO/well, and then incubated at 37° C./5% CO2 for 24 hr. 100 μl of CellTiter-Glo® Reagent (Promega Corporation, Madison, WI) was added to each well and processed according manufacturer's protocol. Results were analyzed and IC50-values were calculated in GraphPad 7 software.

[2] = system: A-427 human lung carcinoma; assay: CellTiter-Glo cancer cell line proliferation assay, A-427; format: cell-based; settings: read-out: A427 at 24 hrs, IC50
Protocol: as §1, §2, §3

KRAS(G12D)/SOS1 = molecular target: T1, KRAS(G12D)/SOS1 (Homo sapiens, UniProt P01116, G12D); assay: KRAS(G12D)/SOS1 homogeneous time-resolved fluorescence (HTRF) assay; format: binding; settings: absence of GTP, 4° C. for 3 hr
T1 construct: purchased Cisbio 63ADK000CB16PEG
T1 sequence (P01116 1-188 isoform P01116-2 G12D): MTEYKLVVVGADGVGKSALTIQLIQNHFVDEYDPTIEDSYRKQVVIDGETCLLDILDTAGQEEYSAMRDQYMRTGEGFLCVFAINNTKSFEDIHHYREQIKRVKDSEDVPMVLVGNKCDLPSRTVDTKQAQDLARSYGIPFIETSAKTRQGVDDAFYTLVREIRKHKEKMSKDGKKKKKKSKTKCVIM
Protocol: The test compound was mixed and incubated with reaction components, incubated in a sealed plate at 4° C. for 3 hr and fluorescence was measured using a PerkinElmer Envision plate reader.

KRAS(G12D) = molecular target: T2, KRAS(G12D) (Homo sapiens, UniProt P01116, G12D); assay: SW1990 WB assay (degradation DC50, Dmax); format: cell-based; settings: Western blot, SW1990 cells
T2 construct: endogenous in cells; host or cells: SW1990
T2 sequence (P01116 1-188 isoform P01116-2 G12D): as above

Row | Structure (SMILES) | IC50 ([1]; Homo sapiens, ASPC1, 24 hr) | IC50 ([2]; Homo sapiens, A-427, 24 hr) | IC50 (KRAS(G12D)/SOS1) | DC50 (KRAS(G12D)) | Dmax (KRAS(G12D)) | WB data SW1990 DMax (KRAS(G12D)) | IC50 ([1]; 24 hr, read-out: ASPC1 at 24 hrs, IC50) | IC50 ([2]; 24 hr)
1 | CN1C[C@H](N2CCN(C(=O)C3CCN(c4ccc5c(c4)C(=O)N(C4CCC(=O)NC4=O)C5=O)CC3)CC2)C[C@@H]1COc1nc(N2CC3CCC(C2)N3)c2cnc(-c3cc(O)cc4ccccc34)c(F)c2n1 (stereo partly drawn) [Compound 37] | > 1 µM | > 1 µM | < 0.1 µM |  |  |  |  | 
2 | O=C1CCC(N2C(=O)c3ccc(N4CCC(C(=O)N5CCN(CC6(COc7nc(N8CC9CCC(C8)N9)c8cnc(-c9cc(O)cc%10ccccc9%10)c(F)c8n7)CC6)CC5)CC4)cc3C2=O)C(=O)N1 (stereo not drawn) [Compound 39] | > 1 µM | > 1 µM | < 0.1 µM |  |  |  |  | 
3 | O=C1CCC(N2Cc3cc(CN4CCN(CC5(COc6nc(N7CC8CCC(C7)N8)c7cnc(-c8cc(O)cc9ccccc89)c(F)c7n6)CC5)CC4)ccc3C2=O)C(=O)N1 (stereo not drawn) [Compound 40] | > 1 µM | > 1 µM | < 0.1 µM |  |  |  |  | 
4 | O=C1CCC(N2C(=O)c3ccc(CN4CCN(CC5(COc6nc(N7CC8CCC(C7)N8)c7cnc(-c8cc(O)cc9ccccc89)c(F)c7n6)CC5)CC4)cc3C2=O)C(=O)N1 (stereo not drawn) [Compound 41] | > 1 µM | > 1 µM | < 0.1 µM |  |  |  |  | 
5 | O=C1CCC(N2C(=O)c3cccc(N4CCC(CN5CCN(CC6(COc7nc(N8CC9CCC(C8)N9)c8cnc(-c9cc(O)cc%10ccccc9%10)c(F)c8n7)CC6)CC5)CC4)c3C2=O)C(=O)N1 (stereo not drawn) [Compound 42] | > 1 µM | > 1 µM | < 0.1 µM |  |  |  |  | 
6 | CN1C[C@H](N2CCN(C(=O)C3CCN(c4ccc5c(c4)CN(C4CCC(=O)NC4=O)C5=O)CC3)CC2)C[C@@H]1COc1nc(N2CC3CCC(C2)N3)c2cnc(-c3cc(O)cc4ccccc34)c(F)c2n1 (stereo partly drawn) [Compound 44] | > 1 µM | > 1 µM | < 0.1 µM |  |  |  |  | 
7 | CN1C[C@H](N2CCC(C(=O)N3CCN(c4ccc5c(c4)C(=O)N(C4CCC(=O)NC4=O)C5=O)CC3)CC2)C[C@@H]1COc1nc(N2CC3CCC(C2)N3)c2cnc(-c3cc(O)cc4ccccc34)c(F)c2n1 (stereo partly drawn) [Compound 46] | > 1 µM | > 1 µM | < 0.1 µM |  |  |  |  | 
8 | O=C1CCC(N2C(=O)c3ccc(N4CCC(CN5CCN(CC6(COc7nc(N8CC9CCC(C8)N9)c8cnc(-c9cc(O)cc%10ccccc9%10)c(F)c8n7)CC6)CC5)CC4)cc3C2=O)C(=O)N1 (stereo not drawn) [Compound 47] | > 1 µM | > 1 µM | < 0.1 µM |  |  |  |  | 
9 | C#Cc1cccc2cccc(-c3ncc4c(N5CC6CCC(C5)N6)nc(OCC5(CN6CCN(CC7CCN(c8ccc9c(c8)C(=O)N(C8CCC(=O)NC8=O)C9=O)CC7)CC6)CC5)nc4c3F)c12 (stereo not drawn) [Compound 48] | > 1 µM | > 1 µM | < 0.1 µM |  |  |  |  | 
10 | O=C1CCC(N2C(=O)c3ccc(CN4CCN([C@H]5CN6CCC[C@@]6(COc6nc(N7CC8CCC(C7)N8)c7cnc(-c8cc(O)cc9ccccc89)c(F)c7n6)C5)CC4)cc3C2=O)C(=O)N1 (stereo partly drawn) [Compound 50] | > 1 µM | > 1 µM | < 0.1 µM |  |  |  |  | 
11 | C#Cc1cccc2cccc(-c3ncc4c(N5CC6CCC(C5)N6)nc(OCC5(CN6CCN(C(=O)C7CCN(c8ccc9c(c8)CN(C8CCC(=O)NC8=O)C9=O)CC7)CC6)CC5)nc4c3F)c12 (stereo not drawn) [Compound 51] | > 1 µM | > 1 µM | < 0.1 µM |  |  |  |  | 
12 | C#Cc1cccc2cc(O)cc(-c3ncc4c(N5CC6CCC(C5)N6)nc(OCC5(CN6CCN(CC7CCN(c8ccc9c(c8)C(=O)N(C8CCC(=O)NC8=O)C9=O)CC7)CC6)CC5)nc4c3F)c12 (stereo not drawn) [Compound 56] |  | 0.1 to 1 µM | < 0.1 µM | < 0.1 µM | > 50% |  |  | 
13 | C#Cc1cccc2cc(O)cc(-c3ncc4c(N5CC6CCC(C5)N6)nc(OCC5(CN6CCN(CC7CCN(c8ccc9c(c8)CN(C8CCC(=O)NC8=O)C9=O)CC7)CC6)CC5)nc4c3F)c12 (stereo not drawn) [Compound 57] | < 0.1 µM | < 0.1 µM | < 0.1 µM | < 0.1 µM | > 50% |  |  | 
14 | C#Cc1c(F)ccc2cc(O)cc(-c3ncc4c(N5CC6CCC(C5)N6)nc(OCC5(CN6CCN(CC7CCN(c8ccc9c(c8)C(=O)N(C8CCC(=O)NC8=O)C9=O)CC7)CC6)CC5)nc4c3F)c12 (stereo not drawn) [Compound 59] | 0.1 to 1 µM | 0.1 to 1 µM | < 0.1 µM |  |  |  |  | 
15 | COc1nc(-c2cc(O)cc3ccccc23)c(F)c2nc(OCC3(CN4CCN(CC5CCN(c6ccc7c(c6)C(=O)N(C6CCC(=O)NC6=O)C7=O)CC5)CC4)CC3)nc(N3CC4CCC(C3)N4)c12 (stereo not drawn) [Compound 66] | 0.1 to 1 µM | 0.1 to 1 µM | < 0.1 µM |  |  |  |  | 
16 | C#Cc1cccc2cc(O)cc(-c3ncc4c(N5CC6CCC(C5)N6)nc(OCC5(CN6CCN(CC7CCN(c8ccc9c(c8)CN(C8CCC(=O)N(C)C8=O)C9=O)CC7)CC6)CC5)nc4c3F)c12 (stereo not drawn) [Compound 71] |  | 0.1 to 1 µM | < 0.1 µM | > 1 µM | 10 to 50% |  |  | 

Row | Structure (SMILES) | IC50 ([1]; Homo sapiens, ASPC1, 24 hr) | IC50 ([2]; Homo sapiens, A-427, 24 hr) | IC50 (KRAS(G12D)/SOS1) | DC50 (KRAS(G12D)) | Dmax (KRAS(G12D)) | WB data SW1990 DMax (KRAS(G12D)) | IC50 ([1]; 24 hr, read-out: ASPC1 at 24 hrs, IC50) | IC50 ([2]; 24 hr)
17 | C#Cc1cccc2cccc(-c3ncc4c(N5CC6CCC(C5)N6)nc(OC[C@H]5C[C@@H](N6CCN(C[C@H]7CC[C@H](Nc8ccc9c(c8)C(=O)N(C8CCC(=O)NC8=O)C9=O)CC7)CC6)CN5C)nc4c3F)c12 (stereo partly drawn) [Compound 77] | > 1 µM | > 1 µM | < 0.1 µM |  |  |  |  | 
18 | C#Cc1cccc2cccc(-c3ncc4c(N5CC6CCC(C5)N6)nc(OC[C@H]5CC[C@@H](CN6CCN(CC7CCC(Nc8ccc9c(c8)C(=O)N(C8CCC(=O)NC8=O)C9=O)CC7)CC6)N5C)nc4c3F)c12 (stereo partly drawn) [Compound 79] | > 1 µM | > 1 µM | < 0.1 µM |  |  |  |  | 
19 | O=C1CCC(N2Cc3cc(N4CCN(CC5(COc6nc(N7CC8CCC(C7)N8)c7cnc(-c8cccc9cccc(Cl)c89)c(F)c7n6)CC5)CC4)ccc3C2=O)C(=O)N1 (stereo not drawn) [Compound 80] | > 1 µM | > 1 µM | < 0.1 µM |  |  |  |  | 
20 | C#Cc1cccc2cc(O)cc(-c3ncc4c(N5CC6CCC(C5)N6)nc(OCC5(CN(C)CC6CCN(c7ccc8c(c7)CN(C7CCC(=O)NC7=O)C8=O)CC6)CC5)nc4c3F)c12 (stereo not drawn) [Compound 84] | > 1 µM | > 1 µM |  | 0.1 to 1 µM | > 50% |  |  | 
21 | C#Cc1cccc2cc(O)cc(-c3ncc4c(N5CC6CCC(C5)N6)nc(OCC5(CN6CCC(C(=O)N7CCN(c8ccc9c(c8)CN(C8CCC(=O)NC8=O)C9=O)CC7)CC6)CC5)nc4c3F)c12 (stereo not drawn) [Compound 85] | > 1 µM | < 0.1 µM |  | 0.1 to 1 µM | > 50% |  |  | 
22 | C#Cc1cccc2cc(O)cc(-c3ncc4c(N5CC6CCC(C5)N6)nc(OCC5(CN6CCN(CC7CCN(c8ccc9c(c8)C(=O)N(C8CCC(=O)NC8=O)C9)CC7)CC6)CC5)nc4c3F)c12 (stereo not drawn) [Compound 86] | < 0.1 µM | < 0.1 µM |  | < 0.1 µM | > 50% |  |  | 
23 | C#Cc1cccc2cc(O)cc(-c3ncc4c(N5CC6CCC(C5)N6C(=O)C(F)(F)F)nc(OCC5(CN6CCN(CC7CCN(c8ccc9c(c8)CN(C8CCC(=O)NC8=O)C9=O)CC7)CC6)CC5)nc4c3F)c12.Cl (stereo not drawn) [Compound 87] |  |  |  |  |  | B (Dmax = 10-50%) | 0.1 to 1 µM | 0.1 to 1 µM
24 | C#Cc1c(F)ccc2cc(O)cc(-c3ncc4c(N5CC6CCC(C5)N6C(=O)CC)nc(OCC5(CN6CCN(CC7CCN(c8ccc9c(c8)CN(C8CCC(=O)NC8=O)C9=O)CC7)CC6)CC5)nc4c3F)c12 (stereo not drawn) [Compound 91] | > 1 µM | > 1 µM |  | > 1 µM | < 10% |  |  | 
25 | C#Cc1c(F)ccc2cc(O)cc(-c3nc(OC)c4c(N5CCN(C(=O)CC)[C@H](CC#N)C5)nc(OCC5(CN6CCN(CC7CCN(c8ccc9c(c8)CN(C8CCC(=O)NC8=O)C9=O)CC7)CC6)CC5)nc4c3F)c12 (stereo partly drawn) [Compound 92] | > 1 µM | > 1 µM | < 0.1 µM |  |  |  |  | 
26 | C#Cc1c(F)ccc2cc(O)cc(-c3ncc4c(N5CCN(C(=O)CC)[C@@H](CC#N)C5)nc(OCC5(CN6CCN(CC7CCN(c8ccc9c(c8)CN(C8CCC(=O)NC8=O)C9=O)CC7)CC6)CC5)nc4c3F)c12 (stereo partly drawn) [Compound 97] | > 1 µM | > 1 µM | < 0.1 µM |  |  |  |  | 
27 | C#Cc1c(F)ccc2cc(O)cc(-c3nc(O)c4c(N5CC6CCC(C5)N6)nc(OCC5(CN6CCN(CC7CCN(c8ccc9c(c8)CN(C8CCC(=O)NC8=O)C9=O)CC7)CC6)CC5)nc4c3F)c12 (stereo not drawn) [Compound 101] | 0.1 to 1 µM | > 1 µM |  | > 1 µM | < 10% |  |  | 
28 | C#Cc1c(F)ccc2cc(O)cc(-c3ncc4c(N5CC6CCC(C5)N6)nc(OCC5(CN6CCN(C7CCN(c8ccc9c(c8)CN(C8CCC(=O)NC8=O)C9=O)CC7)CC6)CC5)nc4c3F)c12 (stereo not drawn) [Compound 104] | 0.1 to 1 µM |  | < 0.1 µM | < 0.1 µM | > 50% |  |  | 
29 | C#Cc1c(F)ccc2cc(O)cc(-c3ncc4c(N5CC6CCC(C5)N6)nc(OCC5(CN6CCC(N7CCC(c8ccc9c(c8)CN(C8CCC(=O)NC8=O)C9=O)CC7)CC6)CC5)nc4c3F)c12 (stereo not drawn) [Compound 107] | < 0.1 µM |  | < 0.1 µM | < 0.1 µM |  |  |  | 
30 | C#Cc1c(F)ccc2cc(O)cc(-c3ncc4c(N5CC6CCC(C5)N6)nc(OCC5(CN6CCC(CN7CCC(c8ccc9c(c8)CN(C8CCC(=O)NC8=O)C9=O)CC7)CC6)CC5)nc4c3F)c12 (stereo not drawn) [Compound 111] |  |  | < 0.1 µM | < 0.1 µM | > 50% |  |  | 
31 | C#Cc1c(F)ccc2cc(O)cc(-c3nc(OC)c4c(N5CC6CCC(C5)N6)nc(OCC5(CN6CCN(C7CCN(c8ccc9c(c8)CN(C8CCC(=O)NC8=O)C9=O)CC7)CC6)CC5)nc4c3F)c12 (stereo not drawn) [Compound 112] |  |  | < 0.1 µM | < 0.1 µM |  |  |  | 
